Measurements: PMC7053343, “Small molecule NSC1892 targets the CUL4A/4B-DDB1 interactions and causes impairment of CRL4^DCAF4 E3 ligases to inhibit colorectal cancer cell growth” (International Journal of Biological Sciences, 2020)

Biological target: T1, DNA damage-binding protein 1 (DDB1) (Homo sapiens, UniProt Q16531)
T1 construct: with CUL4A
Test: AlphaScreen disruption of purified His-DDB1/GST-CUL4A interaction; in vitro Ni-NTA pulldown with recombinant proteins

T1 sequence (Q16531 whole entry): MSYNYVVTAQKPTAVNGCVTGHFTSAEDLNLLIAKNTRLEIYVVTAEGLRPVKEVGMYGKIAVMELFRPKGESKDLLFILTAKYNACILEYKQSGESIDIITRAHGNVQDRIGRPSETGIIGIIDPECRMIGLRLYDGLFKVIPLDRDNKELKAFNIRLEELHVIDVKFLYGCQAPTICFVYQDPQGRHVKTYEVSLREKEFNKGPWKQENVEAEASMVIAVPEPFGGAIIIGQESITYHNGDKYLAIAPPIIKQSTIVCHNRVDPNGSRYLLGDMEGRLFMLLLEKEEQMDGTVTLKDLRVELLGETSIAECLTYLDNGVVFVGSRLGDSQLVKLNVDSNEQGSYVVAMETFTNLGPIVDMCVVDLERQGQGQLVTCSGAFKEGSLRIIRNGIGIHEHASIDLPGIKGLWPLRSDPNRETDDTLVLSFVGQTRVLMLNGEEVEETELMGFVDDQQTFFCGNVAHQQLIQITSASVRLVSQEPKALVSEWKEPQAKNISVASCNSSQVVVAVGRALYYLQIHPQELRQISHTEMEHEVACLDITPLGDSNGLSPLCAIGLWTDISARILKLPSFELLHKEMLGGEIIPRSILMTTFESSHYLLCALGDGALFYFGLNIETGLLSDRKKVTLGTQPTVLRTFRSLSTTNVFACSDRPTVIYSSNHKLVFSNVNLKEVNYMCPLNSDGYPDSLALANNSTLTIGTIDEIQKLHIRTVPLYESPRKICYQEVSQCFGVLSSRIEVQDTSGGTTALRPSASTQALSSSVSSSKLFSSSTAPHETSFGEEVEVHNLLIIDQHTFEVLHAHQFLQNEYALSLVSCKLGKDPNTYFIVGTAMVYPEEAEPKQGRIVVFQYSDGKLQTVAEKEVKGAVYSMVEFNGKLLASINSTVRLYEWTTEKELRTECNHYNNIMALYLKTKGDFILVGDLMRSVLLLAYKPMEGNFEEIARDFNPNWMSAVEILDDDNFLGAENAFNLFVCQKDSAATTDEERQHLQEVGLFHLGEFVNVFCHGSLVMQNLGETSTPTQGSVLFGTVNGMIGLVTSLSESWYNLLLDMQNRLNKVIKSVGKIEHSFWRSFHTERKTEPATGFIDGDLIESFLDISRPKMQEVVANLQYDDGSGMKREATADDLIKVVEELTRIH
T1 sequence (Q13619 whole entry partner): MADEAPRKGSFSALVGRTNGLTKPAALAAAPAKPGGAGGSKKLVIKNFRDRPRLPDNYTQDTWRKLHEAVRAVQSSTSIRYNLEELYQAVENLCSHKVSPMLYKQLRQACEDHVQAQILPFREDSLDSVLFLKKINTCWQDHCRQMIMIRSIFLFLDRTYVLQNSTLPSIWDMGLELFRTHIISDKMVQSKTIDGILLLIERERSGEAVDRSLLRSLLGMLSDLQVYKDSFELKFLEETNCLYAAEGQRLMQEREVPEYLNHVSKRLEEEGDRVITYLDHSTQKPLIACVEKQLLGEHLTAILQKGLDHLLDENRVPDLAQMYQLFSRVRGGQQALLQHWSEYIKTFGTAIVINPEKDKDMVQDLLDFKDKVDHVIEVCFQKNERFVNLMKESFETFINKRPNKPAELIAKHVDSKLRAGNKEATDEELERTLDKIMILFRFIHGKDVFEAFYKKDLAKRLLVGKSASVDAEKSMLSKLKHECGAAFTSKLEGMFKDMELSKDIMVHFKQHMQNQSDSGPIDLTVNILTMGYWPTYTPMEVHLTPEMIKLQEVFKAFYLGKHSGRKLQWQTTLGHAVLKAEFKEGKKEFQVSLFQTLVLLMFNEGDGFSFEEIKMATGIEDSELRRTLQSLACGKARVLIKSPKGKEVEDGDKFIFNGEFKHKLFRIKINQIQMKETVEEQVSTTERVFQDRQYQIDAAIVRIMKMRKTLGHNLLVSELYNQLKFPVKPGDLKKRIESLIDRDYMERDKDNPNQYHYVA

In the case of `CC(=O)O[C@@H]1c2occc2[C@@H](O)C[C@H]2[C@]3(C)CC[C@H]4C(C)(C)CCC[C@]4(C)[C@H]3C[C@@]21C` [NSC1892], the IC50 is reported as 1800 nM.
